IC50 data for ten compounds are collected here from patent publication US20230167127A1, “COMPOUNDS AND THEIR USE IN THE TREATMENT OF BACTERIAL INFECTION” (Hoffmann-La Roche Inc., priority 2020, published 2023).

The test system of the test is Escherichia coli ATCC 25922. The test is described as follows: 50% growth inhibitory concentration (IC50) determination, Iso-Sensitest broth dilution. Conditions: Escherichia coli, ATCC25922, 16 h, strain Escherichia coli ATCC 25922; 10-point broth dilution, optical density at 600 nm over 16 h; read-out: Escherichia coli growth inhibition IC50. The format is cell-based. The essentials: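 10-point twofold Iso-Sensitest broth dilution (e.g. 50 to 0.097 μM final) with DMSO stocks, incubated at 35±2° C. Growth followed by OD 600 nm every 20 min over 16 h; IC50 derived from growth inhibition during logarithmic phase.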
On to `N#Cc1nccc2c1CC(CNCCC1CN(c3ccc4c(n3)NC(=O)CO4)C(=O)O1)C2` (stereo not shown) [Example 90, 6-[[2-[2-oxo-3-(3-oxo-4H-pyrido[3.2-b][1,4]oxazin-6-yl)-1,3-oxazolidin-5-yl]ethylamino]methyl]-6,7-dihydro-5H-cyclopenta[c]pyridine-1-carbonitrile; formic acid], for which the IC50 stood at 170 nM.
With `O=C1COc2ccc(N3CC(CCCNC4Cc5ccc(Cl)cc5C4)OC3=O)nc2N1` (stereo not shown) [Example 10, 6-[5-[3-[(5-chloro-2,3-dihydro-1H-inden-2-yl)amino]propyl]-2-oxo-1,3-oxazolidin-3-yl]-4H-pyrido[3,2-b][1,4]oxazin-3-one; formic acid], the IC50 was determined as 447 nM.
For `O=C1COc2ncc(N3CC(CCNCC4Cc5cncc(F)c5C4)OC3=O)nc2N1` (stereo not shown) [Example 287, 6-[5-[2-[(4-fluoro-6,7-dihydro-5H-cyclopenta[c]pyridin-6-yl)methylamino]ethyl]-2-oxo-1,3-oxazolidin-3-yl]-4H-pyrazino[2,3-b][1,4]oxazin-3-one], the IC50 is below 97.7 nM.
For `O=C1COc2ccc(N3CC(CCNCC4Cc5ccnc(Cl)c5C4)OC3=O)nc2N1` (stereo not shown) [Example 86, 6-[5-[2-[(1-chloro-6,7-dihydro-5H-cyclopenta[c]pyridin-6-yl)methylamino]ethyl]-2-oxo-1,3-oxazolidin-3-yl]-4H-pyrido[3,2-b][1,4]oxazin-3-one], the IC50 is 134 nM.
On to `NC1(COc2cc(F)c3c(c2)CC(CN2CCC4(CC2)CN(c2cnc5c(n2)NC(=O)CO5)C(=O)O4)C3)CC1` (stereo not shown) [Example 257, 6-[8-[[6-[(1-Aminocyclopropyl)methoxy]-4-fluoro-2,3-dihydro-1H-inden-2-yl]methyl]-2-oxo-1-oxa-3,8-diazaspiro[4.5]decan-3-yl]-4H-pyrazino[2,3-b][1,4]oxazin-3-one; formic acid], for which the IC50 was below 97.7 nM.
The figure for `Cc1nc(Cl)nc2c1CC(CNCCC1CN(c3ccc4c(n3)NC(=O)CO4)C(=O)O1)C2` (stereo not shown) [Example 385, 6-[5-[2-[(2-chloro-4-methyl-6,7-dihydro-5H-cyclopenta[d]pyrimidin-6-yl)methylamino]ethyl]-2-oxo-1,3-oxazolidin-3-yl]-4H-pyrido[3,2-b][1,4]oxazin-3-one] is 923 nM.
Consider `N#Cc1cccc2c1CC(NCCNC1CC(=O)N(c3ccc4c(n3)NC(=O)CO4)C1)C2` (stereo not shown) [Example 121, 2-[2-[[5-oxo-1-(3-oxo-4H-pyrido[3,2-b][1,4]oxazin-6-yl)pyrrolidin-3-yl]amino]ethylamino]-2,3-dihydro-1H-indene-4-carbonitrile], for which the IC50 came to 167 nM.
Turning to `Cc1ncc(F)c2c1CC(NCCCc1cn(-c3cnc4c(n3)NC(=O)CO4)c(=O)o1)C2` (single isomer, unassigned; enantiomer a) [Example 367, 6-[5-[3-[(4-Fluoro-1-methyl-6,7-dihydro-5H-cyclopenta[c]pyridin-6-yl)amino]propyl]-2-oxo-1,3-oxazol-3-yl]-4H-pyrazino[2,3-b][1,4]oxazin-3-one, Enantiomer A], the IC50 is below 97.7 nM.
The value for `Cc1nc(OCC2(N)CC2)c(C#N)c2c1CC(CN1CCC3(CC1)CN(c1ccc4c(n1)NC(=O)CO4)C(=O)O3)C2` (stereo not shown) [Example 215, 3-[(1-aminocyclopropyl)methoxy]-1-methyl-6-[[2-oxo-3-(3-oxo-4H-pyrido[3,2-b][1,4]oxazin-6-yl)-1-oxa-3,8-diazaspiro[4.5]decan-8-yl]methyl]-6,7-dihydro-5H-cyclopenta[c]pyridine-4-carbonitrile] was below 97.7 nM; that for `N#Cc1cccc2c1CC(CN[C@H]1CC[C@H](C3CN(c4ccc5c(n4)NC(=O)CO5)C(=O)O3)CC1)C2` (stereo partly drawn) [Example 100, 2-[[[trans-4-[2-oxo-3-(3-oxo-4H-pyrido[3,2-b][1,4]oxazin-6-yl)-1,3-oxazolidin-5-yl]cyclohexyl]amino]methyl]-2,3-dihydro-1H-indene-4-carbonitrile; formic acid] was 1260 nM.

The term IC50 denotes the concentration that inhibits the measured activity by half.
